From publication PMC8704367, “Systematic Analysis and Biochemical Characterization of the Caffeoyl Shikimate Esterase Gene Family in Poplar” (International Journal of Molecular Sciences, 2021)

Tests used:
Format in all cases: biochemical
PoptoCSE1 = target: T1, PoptoCSE1 (Populus tomentosa, UniProt A0A0S1VWX4); assay: HPLC-MS, appearance of caffeic acid; settings: 100 uM substrate, 100 mM sodium phosphate pH 7.5, 0.5 mM DTT, 30 C; substrate made enzymatically with PoptoHCT6
T1 construct: gene CSE1; full-length CDS cloned from cambial zone cDNA into pET28a, His-tagged, E. coli BL21(DE3), Ni-NTA
T1 sequence (A0A0S1VWX4 1-326): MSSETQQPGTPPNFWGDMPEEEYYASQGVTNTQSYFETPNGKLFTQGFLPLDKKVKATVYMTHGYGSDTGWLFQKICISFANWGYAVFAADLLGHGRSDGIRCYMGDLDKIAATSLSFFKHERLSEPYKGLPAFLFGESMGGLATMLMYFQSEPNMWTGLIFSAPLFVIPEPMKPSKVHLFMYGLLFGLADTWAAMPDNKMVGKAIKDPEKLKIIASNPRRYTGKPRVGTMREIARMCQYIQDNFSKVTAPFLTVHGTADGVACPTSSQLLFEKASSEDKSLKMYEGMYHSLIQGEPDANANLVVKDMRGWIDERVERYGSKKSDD

PoptoCSE2 = target: T2, PoptoCSE2 (Populus tomentosa, UniProt A0A0S1VWZ0); assay: HPLC-MS, appearance of caffeic acid; settings: 100 uM substrate, 100 mM sodium phosphate pH 7.5, 0.5 mM DTT, 30 C; substrate made enzymatically with PoptoHCT6
T2 construct: gene CSE2; full-length CDS cloned from cambial zone cDNA into pET28a, His-tagged, E. coli BL21(DE3), Ni-NTA
T2 sequence (A0A0S1VWZ0 1-326): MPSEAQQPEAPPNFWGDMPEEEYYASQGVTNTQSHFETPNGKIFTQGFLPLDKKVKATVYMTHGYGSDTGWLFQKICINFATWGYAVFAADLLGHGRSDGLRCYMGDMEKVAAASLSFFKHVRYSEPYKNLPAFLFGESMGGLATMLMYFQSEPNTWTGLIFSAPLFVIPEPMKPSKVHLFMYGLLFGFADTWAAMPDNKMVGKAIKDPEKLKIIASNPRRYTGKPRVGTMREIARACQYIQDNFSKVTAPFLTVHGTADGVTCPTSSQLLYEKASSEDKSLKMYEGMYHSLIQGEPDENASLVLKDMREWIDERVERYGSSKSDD

PoptoHCT6 = target: T3, PoptoHCT6 (Populus tomentosa, UniProt A0A0S1VWY1); assay: preparative enzymatic synthesis of caffeoyl shikimate
T3 construct: gene HCT6; cloned from cambial zone cDNA into pET28a, His-tagged, E. coli BL21(DE3), Ni-NTA
T3 sequence (A0A0S1VWY1 1-431): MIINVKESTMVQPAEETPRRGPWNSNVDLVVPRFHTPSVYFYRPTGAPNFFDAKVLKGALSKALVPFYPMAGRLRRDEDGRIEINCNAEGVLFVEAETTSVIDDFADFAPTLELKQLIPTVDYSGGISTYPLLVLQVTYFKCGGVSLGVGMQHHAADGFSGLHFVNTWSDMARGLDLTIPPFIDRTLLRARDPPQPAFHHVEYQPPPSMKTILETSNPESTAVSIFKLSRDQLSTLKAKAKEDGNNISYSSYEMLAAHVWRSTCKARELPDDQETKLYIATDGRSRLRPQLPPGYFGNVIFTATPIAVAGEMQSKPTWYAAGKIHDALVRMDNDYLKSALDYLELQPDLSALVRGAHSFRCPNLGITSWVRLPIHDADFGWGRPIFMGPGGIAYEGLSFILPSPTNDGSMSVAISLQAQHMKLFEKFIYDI

O=C(/C=C/c1ccc(O)c(O)c1)O[C@@H]1CC(C(=O)O)=C[C@@H](O)[C@H]1O [caffeoyl shikimate]
HPLC-MS, appearance of caffeic acid (PoptoCSE1): PoptoCSE1 and PoptoCSE2 have detectable activity against caffeoyl shikimate
HPLC-MS, appearance of caffeic acid (PoptoCSE2): PoptoCSE1 and PoptoCSE2 have detectable activity against caffeoyl shikimate

CC(C)(COP(=O)(O)OP(=O)(O)OC[C@H]1O[C@@H](n2cnc3c(N)ncnc32)[C@H](O)[C@@H]1OP(=O)(O)O)[C@@H](O)C(=O)NCCC(=O)NCCSC(=O)/C=C/c1ccc(O)c(O)c1 [caffeoyl-CoA]
preparative enzymatic synthesis of caffeoyl shikimate (PoptoHCT6; co-substrate shikimic acid): caffeoyl shikimate using enzymatic reaction catalyzed by purified recombinant PoptoHCT6 with caffeoyl-CoA and shikimic acid

O=C(O)C1=C[C@@H](O)[C@@H](O)[C@H](O)C1 [shikimic acid]
preparative enzymatic synthesis of caffeoyl shikimate (PoptoHCT6; co-substrate caffeoyl-CoA): caffeoyl shikimate using enzymatic reaction catalyzed by purified recombinant PoptoHCT6 with caffeoyl-CoA and shikimic acid
